Assays:
HeLa = test: Cytotoxicity against human HeLa cells assessed as cell viability after 72 hrs by CCK8 assay; format: functional, cell-based
U-937 = test: Cytotoxicity against human U937 cells assessed as cell viability after 72 hrs by CCK8 assay; format: functional, cell-based; conditions: U-937, 72 h
NCI-H1975 = test: Cytotoxicity against human NCI-H1975 cells assessed as cell viability after 72 hrs by CCK8 assay; format: functional, cell-based; conditions: NCI-H1975, 72 h
MCF7 = test: Cytotoxicity against human MCF7 cells assessed as cell viability after 72 hrs by CCK8 assay; format: functional, cell-based; conditions: MCF7, 72 h
K562 = test: Cytotoxicity against human K562 cells assessed as cell viability after 72 hrs by CCK8 assay; format: functional, cell-based; conditions: K562, 72 h
MOLT-4 = test: Cytotoxicity against human MOLT4 cells assessed as cell viability after 72 hrs by CCK8 assay; format: functional, cell-based; conditions: MOLT-4, 72 h
[1] = Cytotoxicity against human HuH7 cells assessed as cell viability after 72 hrs by CCK8 assay; format: functional, cell-based; conditions: Huh-7, 72 h
[2] = Antiviral activity against Influenza A virus A/Hong Kong/8/68 H3N2 infected in MDCK cells assessed as reduction in virus-induced cytopathic effect after 3 days by CCK8 assay; format: functional, cell-based, Influenza A virus (A/Hong Kong/8/1968([…])); conditions: 72 h
A549 = test: Cytotoxicity against human A549 cells assessed as cell viability after 72 hrs by CCK8 assay; format: functional, cell-based; conditions: A549, 72 h
[3] = system: Mycobacterium tuberculosis; test: Antituberculosis activity against Mycobacterium tuberculosis H37Ra after 3 days by autoluminescent assay; format: functional, organism-based
Enterovirus = test: Antiviral activity against EV71 infected in african green monkey Vero cells assessed as reduction in virus-induced cytopathic effect after 72 to 96 hrs by CCK8 assay; format: functional, organism-based; conditions: Enterovirus, 71, Vero
HL-60 = test: Cytotoxicity against human HL60 cells assessed as cell viability after 72 hrs by CCK8 assay; format: functional, cell-based; conditions: HL-60, 72 h
[4] = Cytotoxicity against human BGC823 cells assessed as cell viability after 72 hrs by CCK8 assay; format: functional, cell-based; conditions: BGC-823, 72 h

Compound | IC50 (HeLa) [nM] | IC50 (U-937) [nM] | IC50 (NCI-H1975) [nM] | IC50 (MCF7) [nM] | IC50 (K562) [nM] | IC50 (MOLT-4) [nM] | IC50 [1] [nM] | IC50 [2] [nM] | IC50 (A549) [nM] | IC50 [3] | IC50 (Enterovirus) [nM] | IC50 (HL-60) [nM] | IC50 [4] [nM]
C[C@]1(COC(=O)c2ccc([N+](=O)[O-])cc2)CCC[C@@]2(C)[C@H]1[C@H](O)C=C1C(=O)OC[C@@]12O | 6120 | 1950 | 2080 | 4250 | 4330 | 2390 | 3280 | 17000 | 2410 | Not Active | 9400 | 2440 | 2320
C[C@]1(CO)CCC[C@@]2(C)[C@H]1[C@H](OC(=O)c1ccc([N+](=O)[O-])cc1)C=C1C(=O)OC[C@@]12O | 6350 | 3970 | 4630 | 6080 | 4760 | 2110 | 2350 | 50000 | 2860 | Not Active | 50000 | 2340 | 2780
CC(/C=C/C(=O)NO)=C\[C@@H](C)C(=O)c1ccc(N(C)C)cc1 [TRICHOSTATIN] | 100 | 50 | 90 |  | 160 |  | 90 | 8 |  | Not Active | 600 | 30 | 80
